Data reported in patent US20190046490A1, “METHODS OF TREATING LACTOSE INTOLERANCE” (Nogra Pharma Limited, priority 2016, published 2019).

System: LCT
Assay: LCT mRNA and LCT activity in duodenum and jejunum of rats after 5 days oral gavage
Type: in vivo, Sprague Dawley rats
Method: Expression of genes of interest was quantified by quantitative PCR (qPCR) of corresponding reverse transcribed mRNA. One μg of total RNA was reverse-transcribed into cDNA using the High Capacity cDNA Archive kit (Applied Biosystems). Amplification was performed using an ABI PRISM 7000 sequence detection system (Applied Biosystem) using Power SYBR® Green PCR master Mix (Applied Biosystem). Primer pairs for each human transcript were chosen with qPrimer depot software (at primerdepot.nci.nih.gov.). Quantification of qPCR signals was performed using ΔCt relative quantification method using GAPDH as a reference gene for human and rat samples and β-Actin for mouse samples. Values were represented in terms of relative quantity of mRNA level variation or fold increase compared to control conditions.
Lactase activity was evaluated by using a glucose oxidase method (Glucose Assay Kit, Sigma). This lactase assay is based on the measurement of the amount of glucose produced following the action of lactase by incubating samples with a lactose buffer solution (0.056 mol/l lactose in a 0.1 mol/l Na-maleate buffer). For Caco-2 cells, lactase activity was determined directly from the cell monolayer. After extensive washing, the cell monolayer was incubated with lactose buffer for one hour at 37° C. The supernatant was recovered, 50 μl were diluted with 100 μl of glucose oxidase reagent and incubated at 37° C. for 1 hour. The reaction was stopped with 100 μl of H2SO4 and read by spectrophotometry at 450 nm. When lactase activity was determined from intestinal sample, tissue samples were first dounce-homogenized in 0.9% NaCl on crushed ice. These homogenates were then diluted in 0.9% NaCl ( 1/500) and 50 μl of dilution were incubated with lactose buffer and used to determine lactase activity. For each experiment, the background attributed to the remaining glucose in the samples was measured by incubating cells or cell extracts in lactose-free buffer.
To determine whether CLA induces LCT expression and activity in vivo, Sprague Dawley rats were fed a control diet and administered either carboxymethyl cellulose (CMC; 0.5%), CLA, or GED for 5 days, after which levels of PPARγ mRNA, LCT mRNA, and LCT activity were measured. CLA was administered at 200 mg/kg/day by oral gavage, and GED was administered at 30 mg/kg/day by oral gavage (FIG. 21A).

[1] = oral gavage 5 days, GED 30 mg/kg/day, CLA 200 mg/kg/day

COC(Cc1ccc(N)cc1)C(=O)O (stereo not shown) [GED, 3-(4′-aminophenyl)2-methoxypropionic acid]
significant increase: LCT activity in jejunal tissue compared to CMC control (30 mg/kg/day oral gavage 5 days) | LCT activity in duodenal tissue compared to CMC control [1] | LCT mRNA expression in duodenal tissue relative to CMC control [1] | LCT mRNA expression in jejunal tissue relative to CMC control [1]
